Measured values published in patent US7427627B2, “N-(4-(4-methylthiazol-5-yl) pyrimidin-2-yl)-N-phenylamines as antiproliferative compounds” (Cyclacel Limited, priority 2001, dated 2008).
Read-outs that look alike come from different tables or passages of the source. Blank lines part the entries; values can stand above or below the molecule they belong to.

What was measured:
CDK2/cyclin E = biological target: T1, CDK2/cyclin E (Homo sapiens, UniProt P24941); experiment: Kinase assay CDK2/cyclin E; type: biochemical; details: Table 1; read-out: Kinase inhibition, IC50 (μM) CDK2/E
T1 construct: His6

A549 = experiment: 72-h MTT cytotoxicity assay, A549; type: cell-based, human; details: Homo sapiens
Procedure: In short: cells were seeded into 96-well plates according to doubling time and incubated overnight at 37° C. Test compounds were made up in DMSO and a 1/3 dilution series prepared in 100 μL cell media, added to cells (in triplicates) and incubated for 72 ho at 37° C. MTT was made up as a stock of 5 mg/mL in cell media and filter-sterilised. Media was removed from cells followed by a wash with 200 μL PBS. MTT solution was then added at 20 μL per well and incubated in the dark at 37° C. for 4 h. MTT solution was removed and cells again washed with 200 μL PBS. MTT dye was solubilised with 200 μL per well of DMSO with agitation.

HT29 = experiment: 72-h MTT cytotoxicity assay, HT29; type: cell-based; details: Homo sapiens
Procedure: (§1) The compounds from the examples above were subjected to a standard cellular proliferation assay using human tumour cell lines obtained from the ATCC (American Type Culture Collection, 10801 University Boulevard, Manessas, Va. 20110-2209, USA). Standard 72-h MTT (thiazolyl blue; 3-[4,5-dimethylthiazol-2-yl]-2,5-diphenyltetrazolium bromide) assays were performed (Haselsberger, K.; Peterson, D. C.; Thomas, D. G.; Darling, J. L. Anti Cancer Drugs 1996, 7, 331-8; Loveland, B. E.; Johns, T. G.; Mackay, I. R.; Vaillant, F.; Wang, Z. X.; Hertzog, P. J. Biochemistry International 1992, 27, 501-10). In short: cells were seeded into 96-well plates according to doubling time and incubated overnight at 37° C. Test compounds were made up in DMSO and a 1/3 dilution series prepared in 100 μL cell media, added to cells (in triplicates) and incubated for 72 ho at 37° C. MTT was made up as a stock of 5 mg/mL in cell media and filter-sterilised. Media was removed from cells followed by a wash with 200 μL PBS. MTT solution was then added at 20 μL per well and incubated in the dark at 37° C. for 4 h. MTT solution was removed and cells again washed with 200 μL PBS. MTT dye was solubilised with 200 μL per well of DMSO with agitation.

Saos-2 = experiment: 72-h MTT cytotoxicity assay, Saos-2; type: cell-based; details: Homo sapiens
Procedure: as §1

Hela = experiment: 72-h MTT assay, Hela; type: cell-based; details: Homo sapiens, read-out: 72-h MTT IC50 Hela, Table 3, Cervix
Procedure: as §1

Lovo = experiment: 72-h MTT assay, Lovo; type: cell-based; details: Homo sapiens, read-out: 72-h MTT IC50 Lovo, Table 3, Colon
Procedure: as §1

H1299 = experiment: 72-h MTT assay, H1299; type: cell-based; details: Homo sapiens, NCI-H1299, 72 h, read-out: 72-h MTT IC50 H1299; Table 3; Lung
Procedure: as §1

HCT-116 = experiment: 72-h MTT assay, HCT-116; type: cell-based; details: Homo sapiens, HCT-116, 72 h, read-out: 72-h MTT IC50 HCT-116; Table 3; Colon
Procedure: as §1

AGS = experiment: 72-h MTT assay, AGS; type: cell-based; details: Homo sapiens, read-out: 72-h MTT IC50 AGS, Table 3, Gastric adenocarcinoma
Procedure: as §1

SKUT-1B = experiment: 72-h MTT assay, SKUT-1B; type: cell-based; details: Homo sapiens, Skut1B, read-out: 72-h MTT IC50 SKUT-1B, Table 3, Leiomyosarcoma
Procedure: as §1

SKUT-1 = experiment: 72-h MTT assay, SKUT-1; type: cell-based; details: Homo sapiens, SK-UT-1, 72 h, read-out: 72-h MTT IC50 SKUT-1; Table 3; Leiomyosarcoma
Procedure: as §1

K562 = experiment: 72-h MTT assay, K562; type: cell-based; details: Homo sapiens, K562, 72 h, read-out: 72-h MTT IC50 K562; Table 3; Chronic myelogenous leukaemia
Procedure: as §1

CCRF-CEM = experiment: 72-h MTT assay, CCRF-CEM; type: cell-based; details: Homo sapiens, read-out: 72-h MTT IC50 CCRF-CEM, Table 3, Leukaemia
Procedure: as §1

HL60 = experiment: 72-h MTT assay, HL60; type: cell-based; details: Homo sapiens, HL-60, 72 h, read-out: 72-h MTT IC50 HL60; Table 3; Promyelocytic leukaemia
Procedure: as §1

nci-H460 = experiment: 72-h MTT assay, nci-H460; type: cell-based; details: Homo sapiens, NCI-H460, 72 h, read-out: 72-h MTT IC50 nci-H460; Table 3; Lung
Procedure: as §1

SK-N-MC = experiment: 72-h MTT assay, SK-N-MC; type: cell-based; details: Homo sapiens, read-out: 72-h MTT IC50 SK-N-MC, Table 3, Neuroblastoma
Procedure: as §1

DU-145 = experiment: 72-h MTT assay, DU-145; type: cell-based; details: Homo sapiens, DU-145, 72 h, read-out: 72-h MTT IC50 DU-145; Table 3; Prostate
Procedure: as §1

Hacat = experiment: 72-h MTT assay, Hacat; type: cell-based; details: Homo sapiens, read-out: 72-h MTT IC50 Hacat, Table 3, Skin keratinocytes
Procedure: as §1

Messa = experiment: 72-h MTT assay, Messa; type: cell-based; details: Homo sapiens, MES-SA, read-out: 72-h MTT IC50 Messa, Table 3, Uterine
Procedure: as §1

Messa-Dx5 = experiment: 72-h MTT assay, Messa-Dx5; type: cell-based; details: Homo sapiens, MES-SA/Dx5, 72 h, read-out: 72-h MTT IC50 Messa-Dx5; Table 3; Uterine
Procedure: as §1

Hs27 = experiment: 72-h MTT assay, Hs27; type: cell-based; details: Homo sapiens, HS27, 72 h, read-out: 72-h MTT IC50 Hs27; Table 3; Foreskin fibroblast (non-transformed)
Procedure: as §1

IMR-90 = experiment: 72-h MTT assay, IMR-90; type: cell-based; details: Homo sapiens, IMR-90, 72 h, read-out: 72-h MTT IC50 IMR-90; Table 3; Foetal lung fibroblast (non-transformed)
Procedure: as §1

WI38 = experiment: 72-h MTT assay, WI38; type: cell-based; details: Homo sapiens, WI-38, 72 h, read-out: 72-h MTT IC50 WI38; Table 3; Foetal lung (non-transformed)
Procedure: as §1

tumour cells = experiment: 72-h MTT assay, mean over tumour cell lines; type: cell-based; details: Homo sapiens, Table 3
Procedure: as §1

CDK4/cyclin D1 = CDK4/cyclin D1 (Homo sapiens, UniProt P11802); experiment: Kinase assay CDK4/cyclin D1;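 note: Enzyme: His6-tagged recombinant human CDK4 produced in baculovirus-infected Sf9 insect cells and purified by metal-chelate chromatography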
[1] = biological target: CDK7-cyclin H-MAT 1 complex (Homo sapiens, UniProt P50613); experiment: Kinase specificity assay CDK7/H; type: biochemical; details: Table 2
[2] = biological target: extracellular-signal-regulated kinase 2 (Homo sapiens, UniProt P28482); experiment: Kinase specificity assay ERK-2; type: biochemical; details: Table 2
protein kinase C α = biological target: T2, protein kinase C α (Homo sapiens, UniProt P17252); experiment: Kinase specificity assay PKCα; type: biochemical; details: Table 2
T2 construct: His6
Procedure: PKCα kinase activity may be measured by the incorporation of radio-labeled phosphate in Histone 3, as described. The reaction mixture (total volume 65 μl) consist of 50 mM Tris-HCl, 1 mM Calcium acetate, 3 mM DTT, 0.03 mg/ml Phosphatidylserine, 2.4 μg/ml PMA, 0.04% NP40, 12 mM Mg/Cl, purified PKCα-100 ng, Histone 3, 0.2 mg/ml, 100 μM ATP, 0.2 μCi [γ-^32P]-ATP. The reaction is carried over 15 min at 37° C. in microplate shaker and is stopped by adding 10 μl 75 mM orthophosphoric acid and placing the plate on ice. 50 μl of the reaction mixture is transferred onto P81 filterplate and after washing off the free radioactive phosphate (3 times with 200 μl 75 mM orthophosphoric acid per well) 50 μl of scintillation liquid (Microscint 40) were added to each well and the radioactivity is measured on Scintillation counter (Topcount, HP).

Ableson tyrosine kinase = Ableson tyrosine kinase (Homo sapiens, UniProt P00519); experiment: Kinase specificity assay Abl; type: biochemical; details: Table 2
protein kinase B = protein kinase B (Homo sapiens, UniProt P31749); experiment: Kinase specificity assay Akt/PKB; type: biochemical; details: Table 2
[3] = biological target: p70 ribosomal protein S6 kinase (Homo sapiens, UniProt P23443); experiment: Kinase specificity assay p70-S6K; type: biochemical; details: Table 2
[4] = biological target: stress-activated protein kinase 2a (Homo sapiens, UniProt Q16539); experiment: Kinase specificity assay SAPK2a; type: biochemical; details: Table 2
polo-like kinase 1 = polo-like kinase 1 (Homo sapiens, UniProt P53350); experiment: Kinase specificity assay Plk1; type: biochemical; details: Table 2
[5] = biological target: glycogen synthase kinase 3β (Homo sapiens, UniProt P49841); experiment: Kinase specificity assay GSK3β; type: biochemical; details: Table 2
[6] = biological target: calmodulin-dependent kinase II; details: read-out: Kinase specificity IC50 Cam-KII; Table 2
[7] = A549, read-out: 72-h MTT in vitro IC50 (μM) A549, Table 1, 72 h
[8] = HT-29, read-out: 72-h MTT in vitro IC50 (μM) HT29, Table 1, 72 h
[9] = SAOS-2, read-out: 72-h MTT in vitro IC50 (μM) Saos-2, Table 1, 72 h

CDK4/cyclin D1, sequence (P11802 whole entry): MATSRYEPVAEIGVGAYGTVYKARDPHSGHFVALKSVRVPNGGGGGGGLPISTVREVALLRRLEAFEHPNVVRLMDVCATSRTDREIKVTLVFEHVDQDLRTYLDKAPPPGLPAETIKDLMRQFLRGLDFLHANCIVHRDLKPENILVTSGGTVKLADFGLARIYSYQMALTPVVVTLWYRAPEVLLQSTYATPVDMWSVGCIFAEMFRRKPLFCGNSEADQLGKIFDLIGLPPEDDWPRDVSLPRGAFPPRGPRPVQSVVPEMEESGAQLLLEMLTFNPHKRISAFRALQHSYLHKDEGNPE
CDK4/cyclin D1, sequence (P24385 whole entry partner): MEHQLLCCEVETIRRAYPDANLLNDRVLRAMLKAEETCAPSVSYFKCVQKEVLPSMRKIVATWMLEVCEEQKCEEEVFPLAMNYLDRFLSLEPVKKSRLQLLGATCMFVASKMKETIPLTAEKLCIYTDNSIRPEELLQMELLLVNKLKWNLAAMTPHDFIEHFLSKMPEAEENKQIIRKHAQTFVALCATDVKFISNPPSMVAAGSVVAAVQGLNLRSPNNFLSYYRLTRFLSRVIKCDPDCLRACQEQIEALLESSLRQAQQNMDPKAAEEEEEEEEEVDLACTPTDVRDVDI
glycogen synthase kinase 3β, sequence (P49841 whole entry): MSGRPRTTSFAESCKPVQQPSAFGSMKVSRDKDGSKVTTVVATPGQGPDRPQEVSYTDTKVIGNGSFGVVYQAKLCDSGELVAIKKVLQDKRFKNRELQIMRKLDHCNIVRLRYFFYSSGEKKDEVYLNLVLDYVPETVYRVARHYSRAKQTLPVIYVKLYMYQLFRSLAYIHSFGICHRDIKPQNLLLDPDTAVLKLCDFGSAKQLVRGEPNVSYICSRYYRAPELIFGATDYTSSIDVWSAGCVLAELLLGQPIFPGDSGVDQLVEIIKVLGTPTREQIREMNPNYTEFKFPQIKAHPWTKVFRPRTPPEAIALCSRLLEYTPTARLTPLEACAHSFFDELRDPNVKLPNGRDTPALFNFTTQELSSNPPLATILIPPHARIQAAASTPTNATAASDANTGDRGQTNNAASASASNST
Ableson tyrosine kinase, sequence (P00519 whole entry): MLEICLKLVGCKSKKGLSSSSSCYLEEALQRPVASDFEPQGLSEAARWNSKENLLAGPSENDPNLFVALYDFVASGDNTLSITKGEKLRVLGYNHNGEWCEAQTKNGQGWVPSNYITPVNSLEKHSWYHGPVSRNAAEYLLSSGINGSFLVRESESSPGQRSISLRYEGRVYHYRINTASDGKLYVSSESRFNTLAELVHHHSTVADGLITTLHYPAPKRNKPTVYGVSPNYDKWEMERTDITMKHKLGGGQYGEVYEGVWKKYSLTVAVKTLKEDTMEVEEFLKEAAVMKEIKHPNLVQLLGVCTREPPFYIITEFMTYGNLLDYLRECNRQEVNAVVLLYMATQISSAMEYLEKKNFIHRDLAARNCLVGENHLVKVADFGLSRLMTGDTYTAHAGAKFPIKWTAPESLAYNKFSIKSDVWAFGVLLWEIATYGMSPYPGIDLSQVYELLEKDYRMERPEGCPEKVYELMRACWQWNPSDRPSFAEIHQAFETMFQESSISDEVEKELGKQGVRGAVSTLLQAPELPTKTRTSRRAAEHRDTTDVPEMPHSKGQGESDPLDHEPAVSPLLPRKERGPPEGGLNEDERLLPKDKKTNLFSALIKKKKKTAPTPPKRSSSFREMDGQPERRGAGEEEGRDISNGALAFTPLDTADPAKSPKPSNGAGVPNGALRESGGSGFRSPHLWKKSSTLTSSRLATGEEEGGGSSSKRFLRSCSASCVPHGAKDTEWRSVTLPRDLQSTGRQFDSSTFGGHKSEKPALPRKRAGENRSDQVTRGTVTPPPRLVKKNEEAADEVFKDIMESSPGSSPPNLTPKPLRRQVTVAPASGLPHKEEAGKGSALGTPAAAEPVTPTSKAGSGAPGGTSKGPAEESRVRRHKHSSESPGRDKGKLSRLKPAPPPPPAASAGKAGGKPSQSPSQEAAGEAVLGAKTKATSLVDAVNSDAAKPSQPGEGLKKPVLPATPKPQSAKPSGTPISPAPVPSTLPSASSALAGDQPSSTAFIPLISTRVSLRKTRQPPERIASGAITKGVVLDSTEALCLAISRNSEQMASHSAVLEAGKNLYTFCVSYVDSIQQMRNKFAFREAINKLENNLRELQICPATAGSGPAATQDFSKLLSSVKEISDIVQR
p70 ribosomal protein S6 kinase, sequence (P23443 24-525): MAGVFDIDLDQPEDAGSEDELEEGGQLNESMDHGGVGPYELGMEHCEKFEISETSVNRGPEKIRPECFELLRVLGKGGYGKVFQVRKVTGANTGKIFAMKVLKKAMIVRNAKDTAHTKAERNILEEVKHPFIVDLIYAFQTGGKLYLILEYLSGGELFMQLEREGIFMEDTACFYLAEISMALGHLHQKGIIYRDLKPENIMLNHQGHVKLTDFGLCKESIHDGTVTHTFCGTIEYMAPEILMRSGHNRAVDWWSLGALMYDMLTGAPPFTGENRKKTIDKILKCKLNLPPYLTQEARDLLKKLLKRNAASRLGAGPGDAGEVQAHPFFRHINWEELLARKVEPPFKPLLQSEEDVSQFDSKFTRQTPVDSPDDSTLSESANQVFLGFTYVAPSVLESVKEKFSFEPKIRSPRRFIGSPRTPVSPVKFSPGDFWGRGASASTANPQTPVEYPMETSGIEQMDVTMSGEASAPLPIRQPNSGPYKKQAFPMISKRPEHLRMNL
protein kinase B, sequence (P31749 whole entry): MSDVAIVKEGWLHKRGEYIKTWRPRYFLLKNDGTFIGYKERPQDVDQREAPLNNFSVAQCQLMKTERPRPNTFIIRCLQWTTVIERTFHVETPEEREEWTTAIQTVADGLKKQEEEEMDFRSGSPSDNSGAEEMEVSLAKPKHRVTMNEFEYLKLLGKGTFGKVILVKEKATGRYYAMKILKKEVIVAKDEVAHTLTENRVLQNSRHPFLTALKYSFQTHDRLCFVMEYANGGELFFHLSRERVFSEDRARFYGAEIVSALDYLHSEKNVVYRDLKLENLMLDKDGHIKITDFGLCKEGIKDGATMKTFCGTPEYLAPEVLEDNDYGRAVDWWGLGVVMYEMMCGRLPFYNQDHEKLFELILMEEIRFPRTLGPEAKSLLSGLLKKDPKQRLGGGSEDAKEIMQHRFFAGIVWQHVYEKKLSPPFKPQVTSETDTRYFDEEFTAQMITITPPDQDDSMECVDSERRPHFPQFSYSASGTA
polo-like kinase 1, sequence (P53350 whole entry): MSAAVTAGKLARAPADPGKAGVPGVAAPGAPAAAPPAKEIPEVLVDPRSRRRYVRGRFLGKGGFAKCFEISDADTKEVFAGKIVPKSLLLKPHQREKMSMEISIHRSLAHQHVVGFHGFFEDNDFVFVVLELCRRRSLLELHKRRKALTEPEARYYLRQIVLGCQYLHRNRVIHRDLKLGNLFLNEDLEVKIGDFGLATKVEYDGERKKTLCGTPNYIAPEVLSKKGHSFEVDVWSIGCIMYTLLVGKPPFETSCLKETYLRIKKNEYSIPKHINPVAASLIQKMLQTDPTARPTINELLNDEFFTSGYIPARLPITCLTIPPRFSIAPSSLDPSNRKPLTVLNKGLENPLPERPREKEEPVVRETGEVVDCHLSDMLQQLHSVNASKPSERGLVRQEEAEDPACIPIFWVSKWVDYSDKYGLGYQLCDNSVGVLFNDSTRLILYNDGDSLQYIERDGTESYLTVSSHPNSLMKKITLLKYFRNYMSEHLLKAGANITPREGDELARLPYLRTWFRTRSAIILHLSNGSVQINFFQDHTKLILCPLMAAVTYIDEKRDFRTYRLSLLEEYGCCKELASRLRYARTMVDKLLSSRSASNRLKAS
CDK7-cyclin H-MAT 1 complex, sequence (P50613 whole entry): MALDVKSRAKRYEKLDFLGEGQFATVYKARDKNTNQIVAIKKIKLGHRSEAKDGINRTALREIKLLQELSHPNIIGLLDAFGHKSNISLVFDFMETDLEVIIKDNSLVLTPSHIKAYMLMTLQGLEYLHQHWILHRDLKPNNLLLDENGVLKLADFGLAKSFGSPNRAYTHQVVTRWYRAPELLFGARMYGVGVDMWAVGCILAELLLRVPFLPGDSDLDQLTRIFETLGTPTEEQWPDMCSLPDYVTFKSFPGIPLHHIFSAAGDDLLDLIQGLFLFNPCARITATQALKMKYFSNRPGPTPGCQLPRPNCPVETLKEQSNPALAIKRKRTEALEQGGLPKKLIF
CDK7-cyclin H-MAT 1 complex, sequence (P51946 whole entry partner): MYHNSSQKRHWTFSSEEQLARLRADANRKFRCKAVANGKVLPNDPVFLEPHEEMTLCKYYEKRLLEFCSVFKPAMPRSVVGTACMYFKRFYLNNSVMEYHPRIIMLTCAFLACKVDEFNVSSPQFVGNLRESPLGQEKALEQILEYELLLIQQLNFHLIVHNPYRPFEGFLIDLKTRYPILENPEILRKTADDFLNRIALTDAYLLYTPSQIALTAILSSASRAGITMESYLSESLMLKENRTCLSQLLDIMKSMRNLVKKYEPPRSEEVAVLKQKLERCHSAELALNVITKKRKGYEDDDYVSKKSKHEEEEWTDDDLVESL
CDK7-cyclin H-MAT 1 complex, sequence (P51948 whole entry partner): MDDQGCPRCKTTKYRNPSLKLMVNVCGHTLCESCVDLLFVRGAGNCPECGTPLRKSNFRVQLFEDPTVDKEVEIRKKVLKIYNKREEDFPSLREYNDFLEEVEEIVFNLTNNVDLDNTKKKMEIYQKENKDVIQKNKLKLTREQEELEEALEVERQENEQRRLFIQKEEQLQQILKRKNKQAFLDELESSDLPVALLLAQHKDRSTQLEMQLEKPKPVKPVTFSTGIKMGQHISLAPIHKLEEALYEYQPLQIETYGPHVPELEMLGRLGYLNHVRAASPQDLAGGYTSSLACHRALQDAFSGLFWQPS

SMILES: Cc1nc(N)sc1-c1ccnc(Nc2cccc(Br)c2)n1 [Compound 16, [4-(2-Amino-4-methyl-thiazol-5-yl)-pyrimidin-2-yl]-(3-bromo-phenyl)-amine]
IC50 (CDK2/cyclin E): 0.09 µM
IC50 (A549; A549, 72 h, read-out: 72-h MTT IC50 A549, Table 3, Lung): 1.32 µM
IC50 (A549; [7]): 0.82 µM
IC50 (HT29; HT-29, 72 h, read-out: 72-h MTT IC50 HT29, Table 3, Colon): 0.25 µM
IC50 (HT29; [8]): 0.66 µM
IC50 (Saos-2; SAOS-2, 72 h, read-out: 72-h MTT IC50 Saos-2, Table 3, Bone osteosarcoma): 0.73 µM
IC50 (Saos-2; [9]): 0.81 µM
IC50 (Hela): 560 nM
IC50 (Lovo): 210 nM
IC50 (H1299): 1060 nM
IC50 (HCT-116): 960 nM
IC50 (AGS): 1110 nM
IC50 (SKUT-1B): 300 nM
IC50 (SKUT-1): 640 nM
IC50 (K562): 540 nM
IC50 (CCRF-CEM): 500 nM
IC50 (HL60): 430 nM
IC50 (nci-H460): 280 nM
IC50 (SK-N-MC): 420 nM
IC50 (DU-145): 1750 nM
IC50 (Hacat): 500 nM
IC50 (Messa): 590 nM
IC50 (Messa-Dx5): 590 nM
IC50 (Hs27): > 5000 nM
IC50 (IMR-90): > 5000 nM
IC50 (WI38): > 5000 nM
IC50 (tumour cells): 680 nM
IC50 (CDK4/cyclin D1): 1.77 µM

SMILES: Cc1nc(C)c(-c2ccnc(Nc3ccc(N(C)C)c(Cl)c3)n2)s1 [Compound 26, 2-[N-(4-N,N-Dimethylamino-3-chlorophenyl)]-4-(2,4-dimethylthiazol-5-yl)-pyrimidineamine]
IC50 (A549; [7]): 0.29 µM
IC50 (HT29; [8]): 0.15 µM
IC50 (Saos-2; [9]): 0.32 µM
IC50 [1]: 4800 nM
IC50 [2]: 20000 nM
IC50 (protein kinase C α): 24000 nM
IC50 (Ableson tyrosine kinase): 1600 nM
IC50 (protein kinase B): 6300 nM
IC50 [3]: 32000 nM
IC50 [4]: 86000 nM
IC50 (polo-like kinase 1): > 100000 nM
IC50 [5]: 2200 nM
IC50 [6]: 69000 nM

SMILES: Cc1ccc(Nc2nccc(-c3sc(=O)n(C)c3C)n2)cc1I [Compound 40, 5-[2-(3-Iodo-4-methyl-phenylamino)-pyrimidin-4-yl]-3,4-dimethyl-3H-thiazol-2-one]
IC50 (CDK2/cyclin E): 0.7 µM
IC50 (A549; [7]): 6.63 µM
IC50 (HT29; [8]): 7.74 µM
IC50 (Saos-2; [9]): 22 µM
IC50 (CDK4/cyclin D1; read-out: Kinase inhibition, IC50 (μM) CDK4/D1, Table 1): 3.98 µM

SMILES: Cc1nc(NS(C)(=O)=O)sc1-c1ccnc(Nc2cccc([N+](=O)[O-])c2)n1 [Compound 56, N-{4-Methyl-5-[2-(3-nitro-phenylamino)-pyrimidin-4-yl]-thiazol-2-yl}-methane sulfonamide]
IC50 (CDK2/cyclin E): 0.01 µM
IC50 (A549; [7]): 0.1 µM
IC50 (HT29; [8]): 0.17 µM
IC50 (Saos-2; [9]): 0.16 µM
IC50 (CDK4/cyclin D1): 1.13 µM

Further molecules by falling IC50 (CDK2/cyclin E), results first:

IC50 (CDK2/cyclin E): 0.23 µM
IC50 (CDK4/cyclin D1): 0.68 µM
SMILES: Cc1nc(NC(=O)CCl)sc1-c1ccnc(Nc2ccc(F)cc2)n1 [Compound 61, 2-Chloro-N-{5-[2-(4-fluoro-phenylamino)-pyrimidin-4-yl]-4-methyl-thiazol-2-yl}-acetamide]
IC50 (A549; [7]): 0.33 µM
IC50 (HT29; [8]): 0.11 µM
IC50 (Saos-2; [9]): 0.3 µM

IC50 (CDK2/cyclin E): 0.07 µM
IC50 (CDK4/cyclin D1): 0.86 µM
SMILES: Cc1nc(NC(=O)CCl)sc1-c1ccnc(Nc2cccc([N+](=O)[O-])c2)n1 [Compound 60, 2-Chloro-N-{4-methyl-5-[2-(3-nitro-phenylamino)-pyrimidin-4-yl]-thiazol-2-yl}-acetamide]
IC50 (A549; [7]): 0.15 µM
IC50 (HT29; [8]): 0.25 µM
IC50 (Saos-2; [9]): 0.21 µM

IC50 (CDK2/cyclin E): 0.004 µM
IC50 (CDK4/cyclin D1): 0.11 µM
SMILES: Cc1nc(NCCO)sc1-c1ccnc(Nc2cccc([N+](=O)[O-])c2)n1 [Compound 58, 2-{4-Methyl-5-[2-(3-nitro-phenylamino)-pyrimidin-4-yl]-thiazol-2-ylamino}-ethanol]
IC50 (A549; [7]): 0.01 µM
IC50 (HT29; [8]): 0.09 µM
IC50 (Saos-2; [9]): 0.06 µM
